Consider three molecules from patent US20180201592A1, “2-AMINO-1,3,4-THIADIAZINE AND 2-AMINO-1,3,4-OXADIAZINE BASED ANTIFUNGAL AGENTS” (F2G Limited, priority 2015, published 2018).

Conditions in all cases: banded MIC grade
The test system of assay [1] is A. fumigatus. The assay can be described thus: Minimum inhibitory concentration, RPMI medium. In kind it is cell-based. How it is done:
(§1) Between 1 and 5 mgs of compound were accurately weighed out into a sterile Eppendorf tube. The compound was dissolved in DMSO to give a solution containing 5 mg/mL. Tubes were stored at −20° C. until required.
(§2) On the day of testing thawed solutions were vortex mixed to ensure homogeneity. 30 μL of solution was removed and added to 570 μL of sterile water in a separate sterile Eppendorf. The thoroughly mixed solution was used to prepare a series of doubling dilutions in water, in a deep well plate. Thirteen replicate plates were prepared using a Minitrak by aspirating 20 μL from each well into eleven clear polystyrene 96 well plates.
(§3) Assays were also performed in RPMI medium (Roswell Park Memorial Media 1640). To perform MIC tests in this medium, dilutions of compounds are prepared in microtitre plates as described above. Fungal strains to be tested are grown and harvested in an identical manner to that described above, and each organism suspension was diluted in RPMI medium, typically containing 2% glucose and 0.135 M MOPS buffer (pH 7.0) to 0.5-2×10^4cfu/mL, rather than in YAG medium. 80 μL of an organism suspension was added to each well of the plate containing drug dilutions.
(§4) This produced MIC plates with a drug range 50-0.05 mg/L and organism inocula of 1-2×10^4 cfu/mL. All plates were incubated for 24-48 hrs at 35° C. Growth was assessed by monitoring the optical density at 485 nm for each well. The MIC of a compound is the lowest drug concentration that inhibits growth of an organism by >80% compared with a drug free control. The following organisms were tested: C. albicans, C. parapsilosis, C. tropicalis, C. glabrata, C. krusei, A. niger, A. fumigatus, A. terreus, A. flavus, A. terreus 49, and A. fumigatus 210.

The subject of assay [2] is A. fumigatus 210. The assay can be described thus: Minimum inhibitory concentration, RPMI medium. In kind it is cell-based. How it is done:
as §1, §2, §3, §4

Assay [3] concerns A. fumigatus 210. The assay can be described thus: Minimum inhibitory concentration, YAG medium. The class given is cell-based, Aspergillus fumigatus. The essentials: (§5)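 MICs (mg/L) reflect >70% inhibition of OD485 growth versus untreated control after 24 hrs at 35° C in YAG medium, spore inoculum 1-2×10^4 cfu/mL, drug range 50-0.05 mg/L.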
In assay [4] the test system is Aspergillus fumigatus. Kind of assay: Minimum inhibitory concentration, YAG medium. The class given is cell-based. The essentials:
as §5

The subject of assay [5] is Aspergillus niger. The assay can be described thus: Minimum inhibitory concentration, YAG medium. The class given is cell-based. An outline of the steps: (§6)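 MIC values (mg/L) were derived from well optical density at 485 nm. Plates with Aspergillus spores and doubling aqueous dilutions of compound (5 mg/mL DMSO stock) had been incubated at 35° C for 24 hrs.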
In assay [6] the test system is Aspergillus flavus. The assay can be described thus: Minimum inhibitory concentration, YAG medium. The class given is cell-based. An outline of the steps: as §6
Assay [7] deals with Aspergillus terreus. Kind of assay: Minimum inhibitory concentration, YAG medium. In kind it is cell-based. The essentials:
as §6

For assay [8], the system named is A. terreus. Kind of assay: Minimum inhibitory concentration, RPMI medium. The class given is cell-based. An outline of the steps: (§7)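 Thawed 5 mg/mL DMSO stocks are vortexed, diluted into sterile water and serially halved in water. The MIC test is then run in RPMI 1640 at 35° C for 24-48 hrs. Wells are read at OD 485 nm.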
For assay [9], the system named is C. albicans. The assay can be described thus: Minimum inhibitory concentration, RPMI medium. The class given is cell-based. An outline of the steps:
as §7

Assay [10] concerns A. niger. The assay can be described thus: Minimum inhibitory concentration, RPMI medium. The class given is cell-based. The essentials:
as §7

Assay [11] concerns C. tropicalis. The assay can be described thus: Minimum inhibitory concentration, RPMI medium. The class given is cell-based. The essentials: as §7
The test system of assay [12] is C. glabrata. The assay can be described thus: Minimum inhibitory concentration, RPMI medium. The class given is cell-based. The essentials: as §7
For assay [13], the system named is C. krusei. Kind of assay: Minimum inhibitory concentration, RPMI medium. The class given is cell-based. The essentials: as §7
In assay [14] the test system is C. parapsilosis. Kind of assay: Minimum inhibitory concentration, RPMI medium. In kind it is cell-based. The essentials:
as §7

For assay [15], the system named is A. flavus. The assay can be described thus: Minimum inhibitory concentration, RPMI medium. In kind it is cell-based. An outline of the steps:
as §7

Assay [16] has as its system A. terreus 49. The assay can be described thus: Minimum inhibitory concentration, RPMI medium. The class given is cell-based. An outline of the steps:
as §7

The test system of assay [17] is A. terreus 49. Kind of assay: Minimum inhibitory concentration, YAG medium. In kind it is cell-based, Aspergillus terreus. An outline of the steps:
as §6

Turning to `NC1=NN=C(CCCCOCc2cc(F)ccc2F)CS1`, the “MIC grade, A. FUMIGATUS, RPMI media” value in [1] is listed as 2 (2: 5-20 mg/L). For the same molecule, in [2], the “MIC grade, A. FUMIGATUS 210, RPMI media” value is on record as 2 (2: 5-20 mg/L). In addition, the “MIC grade, A. FUMIGATUS 210, YAG media” value in assay [3] is recorded as 4 (4: <0.2 mg/L). Besides, the “MIC grade, A. FUMIGATUS, YAG media” value in assay [4] is recorded as 4 (4: <0.2 mg/L). Further, in [5], the “MIC grade, A. NIGER, YAG media” value was 4 (4: <0.2 mg/L). Moreover, the “MIC grade, A. FLAVUS, YAG media” value in assay [6] is 4 (4: <0.2 mg/L). The “MIC grade, A. TERREUS, YAG media” value in assay [7] is 4 (4: <0.2 mg/L). In addition, in assay [8], the “MIC grade, A. TERREUS, RPMI media” value is 2 (2: 5-20 mg/L). Besides, in assay [9], the “MIC grade, C. ALBICANS, RPMI media” value was 3 (3: 1-5 mg/L). Moreover, the “MIC grade, A. NIGER, RPMI media” value in assay [10] was 2 (2: 5-20 mg/L). In addition, the “MIC grade, C. TROPICALIS, RPMI media” value in assay [11] is recorded as 3 (3: 1-5 mg/L). Further, the “MIC grade, C. GLABRATA, RPMI media” value in [12] is reported as 2 (2: 5-20 mg/L). Also, in assay [13], the “MIC grade, C. KRUSEI, RPMI media” value is listed as 3 (3: 1-5 mg/L). For the same molecule, in assay [14], the “MIC grade, C. PARAPSILOSIS, RPMI media” value is listed as 3 (3: 1-5 mg/L). In assay [15], the “MIC grade, A. FLAVUS, RPMI media” value was 2 (2: 5-20 mg/L). In assay [16], the “MIC grade, A. TERREUS 49, RPMI media” value was 2 (2: 5-20 mg/L). Moreover, the “MIC grade, A. TERREUS 49, YAG media” value in assay [17] is on record as 4 (4: <0.2 mg/L).
Turning to `NC1=NN=C(CCCCOCc2cc(Cl)cc(Cl)c2)CS1`, in [1], the “MIC grade, A. FUMIGATUS, RPMI media” value is 2 (2: 5-20 mg/L). Besides, the “MIC grade, A. FUMIGATUS 210, RPMI media” value in assay [2] is recorded as 1 (1: ≥20 mg/L). Moreover, the “MIC grade, A. FUMIGATUS 210, YAG media” value in [3] is reported as 2 (2: 1-5 mg/L). In addition, the “MIC grade, A. FUMIGATUS, YAG media” value in assay [4] was 3 (3: 0.2-1 mg/L). Besides, the “MIC grade, A. NIGER, YAG media” value in assay [5] is given as 3 (3: 0.2-1 mg/L). The “MIC grade, A. FLAVUS, YAG media” value in [6] is 4 (4: <0.2 mg/L). For the same molecule, the “MIC grade, A. TERREUS, YAG media” value in [7] is 3 (3: 0.2-1 mg/L). In assay [8], the “MIC grade, A. TERREUS, RPMI media” value is listed as 2 (2: 5-20 mg/L). The “MIC grade, C. ALBICANS, RPMI media” value in assay [9] is listed as 2 (2: 5-20 mg/L). Besides, the “MIC grade, A. NIGER, RPMI media” value in [10] is recorded as 2 (2: 5-20 mg/L). For the same molecule, in [11], the “MIC grade, C. TROPICALIS, RPMI media” value is on record as 2 (2: 5-20 mg/L). Also, the “MIC grade, C. GLABRATA, RPMI media” value in assay [12] is listed as 2 (2: 5-20 mg/L). Besides, in [13], the “MIC grade, C. KRUSEI, RPMI media” value was 2 (2: 5-20 mg/L). Also, the “MIC grade, C. PARAPSILOSIS, RPMI media” value in [14] was 3 (3: 1-5 mg/L). In addition, the “MIC grade, A. FLAVUS, RPMI media” value in assay [15] is 2 (2: 5-20 mg/L). For the same molecule, the “MIC grade, A. TERREUS 49, RPMI media” value in [16] is reported as 2 (2: 5-20 mg/L). Further, the “MIC grade, A. TERREUS 49, YAG media” value in assay [17] is reported as 3 (3: 0.2-1 mg/L).
For `NC1=NN=C(CCCCOCc2ccc(Cl)cc2F)CS1`, in [1], the “MIC grade, A. FUMIGATUS, RPMI media” value is 2 (2: 5-20 mg/L). The “MIC grade, A. FUMIGATUS 210, RPMI media” value in assay [2] is listed as 2 (2: 5-20 mg/L). Moreover, the “MIC grade, A. FUMIGATUS 210, YAG media” value in assay [3] is listed as 4 (4: <0.2 mg/L). For the same molecule, in assay [4], the “MIC grade, A. FUMIGATUS, YAG media” value is recorded as 4 (4: <0.2 mg/L). Besides, in assay [5], the “MIC grade, A. NIGER, YAG media” value is 3 (3: 0.2-1 mg/L). Further, the “MIC grade, A. FLAVUS, YAG media” value in assay [6] is recorded as 4 (4: <0.2 mg/L). Further, the “MIC grade, A. TERREUS, YAG media” value in [7] was 4 (4: <0.2 mg/L). The “MIC grade, A. TERREUS, RPMI media” value in assay [8] is 3 (3: 1-5 mg/L). The “MIC grade, C. ALBICANS, RPMI media” value in assay [9] is on record as 4 (4: <1 mg/L). Also, in assay [10], the “MIC grade, A. NIGER, RPMI media” value is on record as 3 (3: 1-5 mg/L). Besides, in [11], the “MIC grade, C. TROPICALIS, RPMI media” value was 4 (4: <1 mg/L). The “MIC grade, C. GLABRATA, RPMI media” value in assay [12] is on record as 3 (3: 1-5 mg/L). The “MIC grade, C. KRUSEI, RPMI media” value in assay [13] is 4 (4: <1 mg/L). The “MIC grade, C. PARAPSILOSIS, RPMI media” value in assay [14] was 4 (4: <1 mg/L). In addition, the “MIC grade, A. FLAVUS, RPMI media” value in assay [15] is on record as 4 (4: <1 mg/L). For the same molecule, the “MIC grade, A. TERREUS 49, RPMI media” value in assay [16] is 3 (3: 1-5 mg/L). Besides, in [17], the “MIC grade, A. TERREUS 49, YAG media” value was 4 (4: <0.2 mg/L).
